{"source": "the supplement of paper PMC10307832", "experiment_in_all_cases": "relative viability (nuclei count vs DMSO), 5 days (fraction); higher = more cells survive", "key": {"[1]": {"compound": "COC1=C(C=C(C=C1)C2=CC3=NC=CN3C(=N2)NC4=C(C=CC=N4)C(=O)N)OC [BAY61-3606] + CCNC(=O)c1noc(-c2cc(C(C)C)c(O)cc2O)c1-c1ccc(CN2CCOCC2)cc1 [Luminespib] (partner 0.01 µM)", "procedure,_shortened": "(§1)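 One day after seeding in 1536-well plates, lung cancer cell lines were dosed by pin tool. Dosing was either single-drug or a fixed anchor-drug dose plus five library-drug doses (not always all listed) in √10 steps. After 5 days, nuclei were stained in one fix-and-stain step and counted on 4× images, and relative viability is the nuclei count of treated wells over that of vehicle wells, given as the median of duplicate plates.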"}, "[2]": {"compound": "COC1=C(C=C(C=C1)C2=CC3=NC=CN3C(=N2)NC4=C(C=CC=N4)C(=O)N)OC [BAY61-3606] + O=C(c1cc(Cc2n[nH]c(=O)c3ccccc23)ccc1F)N1CCN(C(=O)C2CC2)CC1 [Olaparib] (partner 8 µM)", "procedure,_shortened": "as §1"}, "[3]": {"compound": "COc1cccc2c1C(=O)c1c(O)c3c(c(O)c1C2=O)C[C@@](O)(C(=O)CO)C[C@@H]3O[C@H]1C[C@H](N)[C@H](O)[C@H](C)O1 [Doxorubicin] + CS(=O)(=O)N1CCN(Cc2cc3nc(-c4cccc5[nH]ncc45)nc(N4CCOCC4)c3s2)CC1 [Pictilisib] (partner 1 µM)", "procedure,_shortened": "as §1"}, "[4]": {"compound": "COc1cccc2c1C(=O)c1c(O)c3c(c(O)c1C2=O)C[C@@](O)(C(=O)CO)C[C@@H]3O[C@H]1C[C@H](N)[C@H](O)[C@H](C)O1 [Doxorubicin] + NC(=O)Nc1cc(-c2cccc(F)c2)sc1C(=O)N[C@H]1CCCNC1 [AZD7762] (partner 0.2 µM)", "procedure,_shortened": "as §1"}}}
{"cell line": "NCI-H1993", "values": [{"measurement": "relative viability", "setting": "[1]; first compound 0.02 µM", "value": 0.947}, {"measurement": "relative viability", "setting": "[1]; first compound 0.06325 µM", "value": 0.736}, {"measurement": "relative viability", "setting": "[1]; first compound 0.2 µM", "value": 0.873}, {"measurement": "relative viability", "setting": "[1]; first compound 0.6325 µM", "value": 0.901}, {"measurement": "relative viability", "setting": "[1]; first compound 2 µM", "value": 0.527}, {"measurement": "relative viability", "setting": "[2]; first compound 0.02 µM", "value": 1.11}, {"measurement": "relative viability", "setting": "[2]; first compound 0.06325 µM", "value": 1.04}, {"measurement": "relative viability", "setting": "[2]; first compound 0.2 µM", "value": 0.984}, {"measurement": "relative viability", "setting": "[2]; first compound 0.6325 µM", "value": 1.13}, {"measurement": "relative viability", "setting": "[2]; first compound 2 µM", "value": 0.82}, {"measurement": "relative viability", "setting": "[3]; first compound 0.001 µM", "value": 0.78}, {"measurement": "relative viability", "setting": "[3]; first compound 0.003162 µM", "value": 0.817}, {"measurement": "relative viability", "setting": "[3]; first compound 0.01 µM", "value": 0.748}, {"measurement": "relative viability", "setting": "[3]; first compound 0.03162 µM", "value": 0.814}, {"measurement": "relative viability", "setting": "[3]; first compound 0.1 µM", "value": 0.656}, {"measurement": "relative viability", "setting": "[4]; first compound 0.001 µM", "value": 0.856}, {"measurement": "relative viability", "setting": "[4]; first compound 0.003162 µM", "value": 0.882}, {"measurement": "relative viability", "setting": "[4]; first compound 0.01 µM", "value": 0.708}, {"measurement": "relative viability", "setting": "[4]; first compound 0.03162 µM", "value": 0.73}, {"measurement": "relative viability", "setting": "[4]; first compound 0.1 µM", "value": 0.579}]}
{"cell line": "CAL-12T", "values": [{"measurement": "relative viability", "setting": "[1]; first compound 0.02 µM", "value": 0.49}, {"measurement": "relative viability", "setting": "[1]; first compound 0.06325 µM", "value": 0.439}, {"measurement": "relative viability", "setting": "[1]; first compound 0.2 µM", "value": 0.209}, {"measurement": "relative viability", "setting": "[1]; first compound 0.6325 µM", "value": 0.789}, {"measurement": "relative viability", "setting": "[1]; first compound 2 µM", "value": 0.187}, {"measurement": "relative viability", "setting": "[2]; first compound 0.02 µM", "value": 0.748}, {"measurement": "relative viability", "setting": "[2]; first compound 0.06325 µM", "value": 0.773}, {"measurement": "relative viability", "setting": "[2]; first compound 0.2 µM", "value": 0.735}, {"measurement": "relative viability", "setting": "[2]; first compound 0.6325 µM", "value": 0.758}, {"measurement": "relative viability", "setting": "[2]; first compound 2 µM", "value": 0.53}, {"measurement": "relative viability", "setting": "[3]; first compound 0.001 µM", "value": 0.508}, {"measurement": "relative viability", "setting": "[3]; first compound 0.003162 µM", "value": 0.559}, {"measurement": "relative viability", "setting": "[3]; first compound 0.01 µM", "value": 0.402}, {"measurement": "relative viability", "setting": "[3]; first compound 0.03162 µM", "value": 0.343}, {"measurement": "relative viability", "setting": "[3]; first compound 0.1 µM", "value": 0.25}, {"measurement": "relative viability", "setting": "[4]; first compound 0.001 µM", "value": 0.727}, {"measurement": "relative viability", "setting": "[4]; first compound 0.003162 µM", "value": 0.673}, {"measurement": "relative viability", "setting": "[4]; first compound 0.01 µM", "value": 0.529}, {"measurement": "relative viability", "setting": "[4]; first compound 0.03162 µM", "value": 0.668}, {"measurement": "relative viability", "setting": "[4]; first compound 0.1 µM", "value": 0.438}]}
{"cell line": "NCI-H1623", "values": [{"measurement": "relative viability", "setting": "[1]; first compound 0.02 µM", "value": 0.604}, {"measurement": "relative viability", "setting": "[1]; first compound 0.06325 µM", "value": 0.439}, {"measurement": "relative viability", "setting": "[1]; first compound 0.2 µM", "value": 0.422}, {"measurement": "relative viability", "setting": "[1]; first compound 0.6325 µM", "value": 0.607}, {"measurement": "relative viability", "setting": "[1]; first compound 2 µM", "value": 0.52}]}
{"cell line": "HCC-78", "values": [{"measurement": "relative viability", "setting": "[2]; first compound 0.02 µM", "value": 0.744}, {"measurement": "relative viability", "setting": "[2]; first compound 0.06325 µM", "value": 0.891}, {"measurement": "relative viability", "setting": "[2]; first compound 0.2 µM", "value": 0.845}, {"measurement": "relative viability", "setting": "[2]; first compound 0.6325 µM", "value": 0.966}, {"measurement": "relative viability", "setting": "[2]; first compound 2 µM", "value": 0.838}, {"measurement": "relative viability", "setting": "[3]; first compound 0.001 µM", "value": 0.208}, {"measurement": "relative viability", "setting": "[3]; first compound 0.003162 µM", "value": 0.216}, {"measurement": "relative viability", "setting": "[3]; first compound 0.01 µM", "value": 0.219}, {"measurement": "relative viability", "setting": "[3]; first compound 0.03162 µM", "value": 0.196}, {"measurement": "relative viability", "setting": "[3]; first compound 0.1 µM", "value": 0.0644}, {"measurement": "relative viability", "setting": "[4]; first compound 0.001 µM", "value": 0.535}, {"measurement": "relative viability", "setting": "[4]; first compound 0.003162 µM", "value": 0.606}, {"measurement": "relative viability", "setting": "[4]; first compound 0.01 µM", "value": 0.703}, {"measurement": "relative viability", "setting": "[4]; first compound 0.03162 µM", "value": 0.636}, {"measurement": "relative viability", "setting": "[4]; first compound 0.1 µM", "value": 0.503}]}
